From patent US20240116985A1, “STAPLED PEPTIDES AND METHODS THEREOF” (priority 2020, published 2024) come the findings set out here.

Data set [1] has as its target T1, full-length beta-Catenin (Uniprot ID P35222) (Homo sapiens, UniProt P35222).
T1 construct: 10 nM full-length beta-Catenin (Uniprot ID P35222)
T1 sequence (P35222 1-781): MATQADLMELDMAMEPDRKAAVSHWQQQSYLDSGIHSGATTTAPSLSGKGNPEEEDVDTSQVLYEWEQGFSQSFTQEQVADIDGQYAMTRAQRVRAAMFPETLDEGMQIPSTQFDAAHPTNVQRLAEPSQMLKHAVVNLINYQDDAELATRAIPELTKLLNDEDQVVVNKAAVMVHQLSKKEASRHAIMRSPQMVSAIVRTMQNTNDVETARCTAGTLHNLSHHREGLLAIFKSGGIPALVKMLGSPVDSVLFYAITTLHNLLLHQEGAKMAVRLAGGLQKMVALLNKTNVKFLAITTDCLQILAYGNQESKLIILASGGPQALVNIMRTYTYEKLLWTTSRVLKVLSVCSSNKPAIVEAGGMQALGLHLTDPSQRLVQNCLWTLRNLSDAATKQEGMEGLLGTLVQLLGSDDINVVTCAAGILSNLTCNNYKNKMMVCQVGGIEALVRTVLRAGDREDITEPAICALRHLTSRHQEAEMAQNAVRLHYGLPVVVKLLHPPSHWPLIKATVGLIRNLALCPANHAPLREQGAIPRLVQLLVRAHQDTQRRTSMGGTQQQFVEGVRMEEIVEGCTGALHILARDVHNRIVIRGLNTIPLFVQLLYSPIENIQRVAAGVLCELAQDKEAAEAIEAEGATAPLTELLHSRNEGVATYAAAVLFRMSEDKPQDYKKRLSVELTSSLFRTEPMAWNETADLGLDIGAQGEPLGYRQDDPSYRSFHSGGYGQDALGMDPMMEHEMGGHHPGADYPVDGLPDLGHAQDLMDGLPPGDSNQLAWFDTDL
The data set is described as follows: Fluorescence polarization IC50 (beta-catenin / 5FAM-TCF4 10-53 competition). Format: binding. As to conditions: read-out: beta-Catenin FP IC50.

A further data set in a line: CHI Log D procedure. As to conditions: pH 7.4, CHI Log D. Format: physicochemical.
The next data set can be described thus: Solubility in PBS. The class given is physicochemical. As to conditions: Solubility (uM). Summed up:
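PBS sample ultracentrifuged; supernatant run on HPLC vs. 50 μM peptide in DMSO standard. Solubility = (PBS peak area / DMSO peak area) × 50 uM.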

Data set [2] deals with T2, beta-catenin/TCF4 engagement (Homo sapiens, UniProt P35222).
T2 construct: expressed in transfected cells; host or cells: HEK293
T2 sequence (P35222 1-781): T1 sequence (P35222 1-781)
The data set can be described thus: Nano-BRET target engagement assay (B-cat-Halo & TCF4-Luc in HEK293 cells). The class given is cell-based. As to conditions: read-out: NanoBRET Abs IC50.

Data set [3] relates to TCF/LEF luciferase Reporter in DLD1 cells. The data set is described as follows: TCF reporter assay (DLD1 TCF/LEF luciferase reporter, Bright-Glo). Format: cell-based. As to conditions: read-out: DLD1 4% Abs IC50, DLD1 reporter, 4%. The source says: Those skilled in the art will appreciate that other suitable reagents may be utilized and various parameters may be adjusted.
DLD1 reporter cell line was generated by using TCF/LEF luciferase Reporter Lentivirus (BPS Bioscience Catalog #79787). Parental DLD1 cells (ATCC@ CCL-221) were transfected with the lentivirus and followed by 3-day puromycin selection. Single clone was selected for Reporter assay.
On Day 1, cultured cells in flasks that are no more than about 60-70% confluent were washed with PBS and typsinized in 3 mL/T75 until cells were free floating. Spin down cells for 5 minutes at 1100RPM. While cells spin, determine the number of plates (3 compounds per plate) needed. After spinning, aspirate the supernatant gently and add 10 mL media (RPMI+4% FBS), and re-suspend and mix the cells gently. Count the cells twice in the cell counter Countess and take average of both the counts, and determine how many cells are needed. After plating cells at 5000 cells/well, seal with aerseal film. 90 uL cells/well. Incubate at 37° C. overnight, tap gently to mix and don't stack plates.
On Day 2, compounds were added. Stock solution was 10 mM. Make the DMSO containing media by adding 36 uL DMSO to 10 mL of media. Make the dilution wells by transferring 100 uL DMSO+Media into rows B-F of a protein LoBind 96-well plate. Row G is empty. Add any extra DMSO+media to row H. Transfer 4 uL of stock solution to Row A. One compound per column. Add 196 uL media to Row A, no DMSO in the media. Concentration of Row A was 200 uM. Mix well and do a 6 pt, 1:2 serial dilution, mix ×10 per transfer and change tips before each transfer. Removed excess volume from final well (row F) and discard. Transfer 10 uL of the compound containing media to cells with a multichannel according to plate maps. Add 60 uL DMSO containing media to the DMSO wells. The edge wells were typically not used in the assay and could be ignored if needed or replaced with PBS, but there typically were liquids in the wells. Cover plates with breathable plate sealer and incubate overnight.
A 96-well plate may be utilized to prepare dilution series for up to 12 compounds, each with several concentrations (e.g., 200, 100, 50, 25, 12.5, 6.25 and 0 uM; can be utilized as 100× depending on final test concentrations).
0 uM is the DMSO control for the whole plate. Edge well filled with 90 uL cells+10 uL DMSO containing media.
On Day 3, luciferase levels were assessed using Bright-Glo (Promega). Equilibrate Bright-Glo to room temperature before addition. 7 mL of mixed Bright-Gbo per plate. Unused Bright-Glo could be store at −80° C. Reconstituted reagent can be stored for up to 1 month at −80° C., or after one freeze-thaw. When ready to read, remove plates from incubator and let sit at room temperature for 15 minutes. Typically stagger taking out plates if reading multiple plates before adding the Bright-Glo. Add 90 uL/well Bright-Glo and shake gently for 3 minutes. Read luminescence on GloMax immediately using ‘BrightGlo’ programs.
Cellular activity was assessed using CTG. Equilibrate CTG reagents to room temperature. Equilibrate plates to room temp, e.g. 15 min. Use same time length for all plates. Add CTG reagent, 25 uL if using undiluted, or 90 uL if diluted 1 to 4. Shake for 2 min to induce cell lysis. Allow plate to incubate at RT for 10 min to stabilize lumine sent signal. Read luminesence using program ‘CellTiter-Glo’. Use Prism to find the Absolute IC50 (AbsIC50=X[50]) of each compound.

The structures appear in SMILES notation. ≈ marks a conversion by molar mass, not a printed value. Where two headings read alike, the source gives them in different places. Some results are limits rather than exact numbers.

As to `CC(=O)N1CCC[C@]12CC=CCCCC1(CCCC=CCCCOC(=O)N3CC[C@@](C(=O)N[C@@H](Cc4ccccc4)C(=O)N[C@@H](Cc4csc5ccccc45)C(=O)N[C@@H](CCC(N)=O)C(N)=O)(C3)NC(=O)[C@H](CO)NC(=O)[C@H](Cc3cccc(C(F)(F)F)c3)NC(=O)[C@H](C)NC(=O)[C@H](C)NC(=O)[C@H](CC(=O)O)NC(=O)[C@H](CC(=O)O)NC1=O)NC(=O)[C@H](CC1CCCCC1)NC(=O)[C@H](CC(=O)O)NC2=O` (stereo partly drawn) [I-1125, Ac-PL3-Asp-Cha-B5-Asp-Asp-Ala-Ala-3F3MeF-Ser-PyrS2-Phe-BztA-Gln-NH2], the figures for the concentration for half-maximal inhibition (IC50) in data set [1] and in data set [2] (absolute IC50) were 16 nM and over 20000 nM, respectively. Besides, the chromatographic logD in “CHI Log D procedure” turned out to be 2.39. Moreover, the Solubility in the data set “Solubility in PBS” turned out to be 45 µM (≈ 89.1 µg/mL).

As for `CC(=O)N1CCC[C@]12CC=CCCCC1(CCCC=CCCCOC(=O)N3CC[C@@](C(=O)N[C@@H](Cc4ccccc4)C(=O)N[C@@H](Cc4csc5ccccc45)C(=O)N[C@@H](CCC(N)=O)C(N)=O)(C3)NC(=O)[C@H](CO)NC(=O)[C@H](Cc3ccc(C(F)(F)F)cc3)NC(=O)[C@H](C)NC(=O)[C@H](C)NC(=O)[C@H](CC(=O)O)NC(=O)[C@H](CC(=O)O)NC1=O)NC(=O)[C@H](CC1CCCCC1)NC(=O)[C@H](CC(=O)O)NC2=O` (stereo partly drawn) [I-1126, Ac-PL3-Asp-Cha-B5-Asp-Asp-Ala-Ala-4F3MeF-Ser-PyrS2-Phe-BztA-Gln-NH2], the IC50 in data set [1] worked out at 32 nM; in data set [2], 26800 nM. In addition, the chromatographic logD in the data set “CHI Log D procedure” is 2.42. In the data set “Solubility in PBS”, this compound registered a Solubility of 49 µM (≈ 97 µg/mL).

In the case of `COc1cccc(C[C@@H]2NC(=O)[C@H](C)NC(=O)[C@H](C)NC(=O)[C@H](CC(=O)O)NC(=O)[C@H](CC(=O)O)NC(=O)C3(CCCC=CCCCOC(=O)N4CC[C@@](C(=O)N[C@@H](Cc5ccccc5)C(=O)N[C@@H](Cc5csc6ccccc56)C(=O)N[C@@H](CCC(N)=O)C(N)=O)(C4)NC(=O)[C@H](CC(C)C)NC2=O)CCCC=CC[C@]2(CCCN2C(C)=O)C(=O)N[C@@H](CC(=O)O)C(=O)N[C@@H](CC(C)(C)C)C(=O)N3)c1` (stereo partly drawn) [I-1127, Ac-PL3-Asp-Npg-B5-Asp-Asp-Ala-Ala-3OMeF-Leu-PyrS2-Phe-BztA-Gln-NH2], the results for the half-inhibitory concentration (IC50) in data set [1] and in data set [2] were 18 nM and 5400 nM, respectively. In addition, the chromatographic logD in “CHI Log D procedure” amounted to 2.18. Moreover, the concentration in solution in the data set “Solubility in PBS” (Solubility) was 47 µM (≈ 91.2 µg/mL).

Regarding `CC(=O)N1CCC[C@]12CC=CCCCC1(CCCC=CCCCOC(=O)N3CC[C@@](C(=O)N[C@@H](Cc4ccccc4)C(=O)N[C@@H](Cc4csc5ccccc45)C(=O)N[C@@H](CCC(N)=O)C(N)=O)(C3)NC(=O)[C@H](CC(C)C)NC(=O)[C@H](Cc3cccc(C(F)(F)F)c3)NC(=O)[C@H](C)NC(=O)[C@H](C)NC(=O)[C@H](CC(=O)O)NC(=O)[C@H](CC(=O)O)NC1=O)NC(=O)[C@H](CC(C)(C)C)NC(=O)[C@H](CC(=O)O)NC2=O` (stereo partly drawn) [I-1128, Ac-PL3-Asp-Npg-B5-Asp-Asp-Ala-Ala-3F3MeF-Leu-PyrS2-Phe-BztA-Gln-NH2], the 50% inhibitory concentration (IC50) in data set [1] turned out to be 20 nM; in data set [2], 8100 nM. This compound came in with a chromatographic logD in “CHI Log D procedure” of 2.3. For the same compound, the Solubility in the data set “Solubility in PBS” came to 23 µM (≈ 45.5 µg/mL).

Consider `CC(=O)N1CCC[C@]12CC=CCCCC1(CCCC=CCCCOC(=O)N3CC[C@@](C(=O)N[C@@H](Cc4ccccc4C(F)(F)F)C(=O)N[C@@H](Cc4csc5ccccc45)C(=O)N[C@@H](CCC(N)=O)C(N)=O)(C3)NC(=O)[C@H](CC(C)C)NC(=O)[C@H](Cc3ccccc3)NC(=O)[C@H](C)NC(=O)[C@H](C)NC(=O)[C@H](Cc3cccc(C(=O)O)c3)NC(=O)[C@H](CC(=O)O)NC1=O)NC(=O)[C@H](CC(C)(C)C)NC(=O)[C@H](CC(=O)O)NC2=O` (stereo partly drawn) [I-1466, Ac-PL3-Asp-Npg-B5-Asp-3COOHF-Ala-Ala-Phe-Leu-PyrS2-2F3MeF-BztA-Gln-NH2], for which the IC50 was 10 nM in data set [1] and 700 nM in data set [3] (absolute IC50).

As for `CC(=O)N1CCC[C@]12CC=CCCCC1(CCCC=CCCCOC(=O)N3CC[C@@](C(=O)N[C@@H](Cc4ccsc4)C(=O)N[C@@H](Cc4csc5ccccc45)C(=O)N[C@@H](CCCNC(=N)N)C(N)=O)(C3)NC(=O)[C@H](CC(N)=O)NC(=O)[C@H](Cc3ccccc3)NC(=O)[C@H](C)NC(=O)C(C)(C)NC(=O)[C@H]([C@@H](C)O)NC(=O)[C@H](CC(N)=O)NC1=O)NC(=O)[C@H](CC(C)(C)C)NC(=O)[C@H](CC(=O)O)NC2=O` (stereo partly drawn) [I-2413, Ac-PL3-Asp-Npg-B5-Asn-Thr-Aib-Ala-Phe-Asn-PyrS2-3Thi-BztA-Arg-NH2], the figures for the half-maximal inhibitory concentration (IC50) in data set [1] (fluorescence polarization) and in data set [3] (absolute IC50) were 133 nM and over 20000 nM, respectively.

With `CC(C)C[C@H](NC(=O)[C@]12CCN(C1)C(=O)OCCCCCCCCC1(CCCCCCc3ccccc3C(=O)N3CCC[C@@]3(C)C(=O)N[C@@H](CC(=O)O)C(=O)N1)C(=O)N[C@@H](C)C(=O)N[C@@H](CC(=O)O)C(=O)N[C@@H](CC(=O)O)C(=O)N[C@@H](C)C(=O)N[C@@H](C)C(=O)N[C@@H](Cc1ccccc1)C(=O)N2)C(=O)N[C@@H](Cc1ccsc1)C(=O)N[C@@H](Cc1csc2ccccc12)C(=O)N[C@@H](CCC(N)=O)C(N)=O` (stereo partly drawn) [I-2606, BzAm2Allyl-MePro-Asp-B5-Ala-Asp-Asp-Ala-Ala-Phe-PyrS2-Leu-3Thi-BztA-Gln-NH2], the IC50 in data set [1] (fluorescence polarization) is 734 nM; in data set [3], over 20000 nM.

`CC(C)C[C@H](NC(=O)[C@]12CCN(C1)C(=O)OCCCCCCCCC1(CCCCCCc3ccccc3C(=O)N3CCC[C@@]3(C)C(=O)N[C@@H](CC(=O)O)C(=O)N1)C(=O)N[C@@H](C)C(=O)N[C@@H](CC(=O)O)C(=O)N[C@@H](Cc1cccc(C(=O)O)c1)C(=O)N[C@@H](C)C(=O)N[C@@H](C)C(=O)N[C@@H](Cc1ccccc1)C(=O)N2)C(=O)N[C@@H](Cc1ccsc1)C(=O)N[C@@H](Cc1csc2ccccc12)C(=O)N[C@@H](CCC(N)=O)C(N)=O` (stereo partly drawn) [I-2607, BzAm2Allyl-MePro-Asp-B5-Ala-Asp-3COOHF-Ala-Ala-Phe-PyrS2-Leu-3Thi-BztA-Gln-NH2]: the figures for the half-inhibitory concentration (IC50) in data set [1] (fluorescence polarization) and in data set [3] were 904 nM and over 20000 nM, respectively.
